{"source": "patent US20150343016A1", "about": "“CHEMICAL ENTITIES AND THERAPEUTIC USES THEREOF” (The Regents of the University of Colorado, a body corporate, priority 2010, published 2015)", "tested_on": "HN31 Head and Neck Cancer cell line", "experiment": "MTT assay, Bouvardin with ionizing radiation, HN31 (treated on the same day)", "format": "cell-based, human", "settings": "HN31 cells", "experimental": "“Combination Index” computation. Combination Indices were calculated using CalcuSyn software (Biosoft), which uses the method of Chou and Talalay. This method first computes drug-induced effect using the Hill Equation: where E is the measured effect; C is the drug concentration; Emax is the full range of drug effect, usually at or near 100%; IC50 is the drug concentration producing the median effect of 50%; and n is the curve shape parameter describing the steepness of the concentration-effect relationship. The Chou and Talalay method then linearizes the Hill Equation by logarithmic transformation as: where fu is the fraction of cells left unaffected after drug exposure, fa is the fraction of cells affected by the exposure, C is the drug concentration used, Cm is the concentration to achieve the median effect, and n is the curve shape parameter. Cm and n are equivalent to IC50 and n, respectively, in the Hill Equation. The values of n (obtained from the slope), nlog(Cm) (obtained from the absolute value of the intercept), and, therefore, Cm are obtained by plotting log(fu−1−1) versus log(C). These numbers are then used to compute the Combination Index (CI) according to the formula: CI=(D)1/(Dx)1+(D)2/(Dx)2 (26). (Dx)1 and (Dx)2 are the doses required to achieve a given effect level for each treatment, i.e. a specified value of Fraction Affected or Fa. (D)1 and (D)2 are the doses of each treatment in a given combination which gives the same Fa.\nThe growth inhibitory effects of Bouvardin with ionizing radiation (IR) were evaluated using a modified tetrazolium salt (MTT) assay. In the MTT assay, 1,000 to 2,000 viable cells were plated in 100 uL of growth medium in 96-well plates (Corning, Ithaca, N.Y.). Following an overnight incubation, drug was added in varying concentrations and the plates were irradiated on the same day (co-treatment) or 24 hr later (pre-treatment) and incubated for 6 to 7 days. The tetrazolium salt was added at a concentration of 0.4 mg/mL to each well following the 6- to 7-day treatment. The plates were incubated with the salt for 4 hours at 37° C. At 4 hours, the medium was aspirated off, leaving the dark blue formazan product at the bottom of the wells. The reduced MTT product was solubilized by adding […] of 0.2 N HCl in 75% isopropanol, 23% MilliQ water to each well. Thorough mixing was done using a Titertek multichannel pipetman. The absorbency of each well was measured using an automated plate reader (Molecular Devices, Sunnyvale, Calif.). All experiments were done in triplicate.\nMTT assays were used to determine the effect of Bouvardin (concentrations in uM) in combination with ionizing radiation (in Gy, X-axis). FIG. 14 depicts CI values for Bouvardin and radiation on 3 cell lines. Combination Index data from 3 different Head and Neck Cancer cell lines are shown. Black dashed lines represent a CI value of 1. CI values below 1 indicate synergy. 1586 and UM-SCC19 were pre-treated whereas HN31 was treated on the same day.", "data": [{"compound": "COc1ccc(C[C@H]2C(=O)N[C@H](C)C(=O)N(C)[C@@H]3C(=O)N(C)[C@@H](Cc4ccc(O)c(c4)Oc4ccc(cc4)[C@H]3O)C(=O)N[C@@H](C)C(=O)N[C@H](C)C(=O)N2C)cc1", "note": "(stereo in doubt) [Bouvardin, bouvardin]", "values": [{"measurement": "Combination Index", "setting": "Bouvardin 0.001 uM + 1 Gy IR", "value": 4.673}, {"measurement": "Fraction Affected", "setting": "Bouvardin 0.001 uM + 1 Gy IR", "value": 0.165}, {"measurement": "Combination Index", "setting": "Bouvardin 0.001 uM + 2 Gy IR", "value": 1.605}, {"measurement": "Fraction Affected", "setting": "Bouvardin 0.001 uM + 2 Gy IR", "value": 0.292}, {"measurement": "Combination Index", "setting": "Bouvardin 0.001 uM + 4 Gy IR", "value": 0.989}, {"measurement": "Fraction Affected", "setting": "Bouvardin 0.001 uM + 4 Gy IR", "value": 0.478}, {"measurement": "Combination Index", "setting": "Bouvardin 0.003 uM + 1 Gy IR", "value": 1.405}, {"measurement": "Fraction Affected", "setting": "Bouvardin 0.003 uM + 1 Gy IR", "value": 0.362}, {"measurement": "Combination Index", "setting": "Bouvardin 0.003 uM + 2 Gy IR", "value": 0.877}, {"measurement": "Fraction Affected", "setting": "Bouvardin 0.003 uM + 2 Gy IR", "value": 0.463}, {"measurement": "Combination Index", "setting": "Bouvardin 0.003 uM + 4 Gy IR", "value": 0.93}, {"measurement": "Fraction Affected", "setting": "Bouvardin 0.003 uM + 4 Gy IR", "value": 0.535}, {"measurement": "Combination Index", "setting": "Bouvardin 0.006 uM + 1 Gy IR", "value": 0.462}, {"measurement": "Fraction Affected", "setting": "Bouvardin 0.006 uM + 1 Gy IR", "value": 0.574}, {"measurement": "Combination Index", "setting": "Bouvardin 0.006 uM + 2 Gy IR", "value": 0.517}, {"measurement": "Fraction Affected", "setting": "Bouvardin 0.006 uM + 2 Gy IR", "value": 0.602}, {"measurement": "Combination Index", "setting": "Bouvardin 0.006 uM + 4 Gy IR", "value": 1.005}, {"measurement": "Fraction Affected", "setting": "Bouvardin 0.006 uM + 4 Gy IR", "value": 0.559}, {"measurement": "Combination Index", "setting": "Bouvardin 0.01 uM + 1 Gy IR", "value": 0.401}, {"measurement": "Fraction Affected", "setting": "Bouvardin 0.01 uM + 1 Gy IR", "value": 0.731}, {"measurement": "Combination Index", "setting": "Bouvardin 0.01 uM + 2 Gy IR", "value": 0.419}, {"measurement": "Fraction Affected", "setting": "Bouvardin 0.01 uM + 2 Gy IR", "value": 0.747}, {"measurement": "Combination Index", "setting": "Bouvardin 0.01 uM + 4 Gy IR", "value": 0.657}, {"measurement": "Fraction Affected", "setting": "Bouvardin 0.01 uM + 4 Gy IR", "value": 0.73}, {"measurement": "Combination Index", "setting": "Bouvardin 0.03 uM + 1 Gy IR", "value": 0.565}, {"measurement": "Fraction Affected", "setting": "Bouvardin 0.03 uM + 1 Gy IR", "value": 0.753}, {"measurement": "Combination Index", "setting": "Bouvardin 0.03 uM + 2 Gy IR", "value": 0.471}, {"measurement": "Fraction Affected", "setting": "Bouvardin 0.03 uM + 2 Gy IR", "value": 0.782}, {"measurement": "Combination Index", "setting": "Bouvardin 0.03 uM + 4 Gy IR", "value": 1.099}, {"measurement": "Fraction Affected", "setting": "Bouvardin 0.03 uM + 4 Gy IR", "value": 0.717}, {"measurement": "Combination Index", "setting": "Bouvardin 0.06 uM + 1 Gy IR", "value": 0.663}, {"measurement": "Fraction Affected", "setting": "Bouvardin 0.06 uM + 1 Gy IR", "value": 0.778}, {"measurement": "Combination Index", "setting": "Bouvardin 0.06 uM + 2 Gy IR", "value": 0.673}, {"measurement": "Fraction Affected", "setting": "Bouvardin 0.06 uM + 2 Gy IR", "value": 0.785}, {"measurement": "Combination Index", "setting": "Bouvardin 0.06 uM + 4 Gy IR", "value": 1.086}, {"measurement": "Fraction Affected", "setting": "Bouvardin 0.06 uM + 4 Gy IR", "value": 0.756}, {"measurement": "Combination Index", "setting": "Bouvardin 0.1 uM + 1 Gy IR", "value": 0.97}, {"measurement": "Fraction Affected", "setting": "Bouvardin 0.1 uM + 1 Gy IR", "value": 0.825}, {"measurement": "Combination Index", "setting": "Bouvardin 0.1 uM + 2 Gy IR", "value": 1.673}, {"measurement": "Fraction Affected", "setting": "Bouvardin 0.1 uM + 2 Gy IR", "value": 0.789}, {"measurement": "Combination Index", "setting": "Bouvardin 0.1 uM + 4 Gy IR", "value": 1.914}, {"measurement": "Fraction Affected", "setting": "Bouvardin 0.1 uM + 4 Gy IR", "value": 0.784}, {"measurement": "Combination Index", "setting": "Bouvardin 0.3 uM + 1 Gy IR", "value": 1.563}, {"measurement": "Fraction Affected", "setting": "Bouvardin 0.3 uM + 1 Gy IR", "value": 0.837}, {"measurement": "Combination Index", "setting": "Bouvardin 0.3 uM + 2 Gy IR", "value": 1.911}, {"measurement": "Fraction Affected", "setting": "Bouvardin 0.3 uM + 2 Gy IR", "value": 0.826}, {"measurement": "Combination Index", "setting": "Bouvardin 0.3 uM + 4 Gy IR", "value": 2.897}, {"measurement": "Fraction Affected", "setting": "Bouvardin 0.3 uM + 4 Gy IR", "value": 0.8}, {"measurement": "Combination Index", "setting": "Bouvardin 0.6 uM + 1 Gy IR", "value": 2.067}, {"measurement": "Fraction Affected", "setting": "Bouvardin 0.6 uM + 1 Gy IR", "value": 0.85}, {"measurement": "Combination Index", "setting": "Bouvardin 0.6 uM + 2 Gy IR", "value": 2.148}, {"measurement": "Fraction Affected", "setting": "Bouvardin 0.6 uM + 2 Gy IR", "value": 0.849}, {"measurement": "Combination Index", "setting": "Bouvardin 0.6 uM + 4 Gy IR", "value": 4.862}, {"measurement": "Fraction Affected", "setting": "Bouvardin 0.6 uM + 4 Gy IR", "value": 0.797}, {"measurement": "Combination Index", "setting": "Bouvardin 1 uM + 1 Gy IR", "value": 4.673}, {"measurement": "Fraction Affected", "setting": "Bouvardin 1 uM + 1 Gy IR", "value": 0.165}, {"measurement": "Combination Index", "setting": "Bouvardin 1 uM + 2 Gy IR", "value": 1.605}, {"measurement": "Fraction Affected", "setting": "Bouvardin 1 uM + 2 Gy IR", "value": 0.292}, {"measurement": "Combination Index", "setting": "Bouvardin 1 uM + 4 Gy IR", "value": 0.989}, {"measurement": "Fraction Affected", "setting": "Bouvardin 1 uM + 4 Gy IR", "value": 0.478}]}]}
